# Data from PubChem BioAssay (NCI).
# Where “and” joins values, the source holds several entries; their conditions need not be identical. Identical values can stand only once.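 Five compound concentrations were applied to cells in 96-well plates for 48 hours; endpoints were derived by simple linear interpolation of the resulting dose-response curve. GI50: concentration for 50% inhibition of growth. TGI is the concentration that stops growth completely.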
# What was measured:
# Experiment in all cases: inhibition of tumour cell growth, NCI panel, 48 h
# LXFL 529 NSCLC = tested on: LXFL 529 NSCLC
# DMS 114 small cell lung = tested on: DMS 114 small cell lung
# M19-MEL melanoma = tested on: M19-MEL melanoma
# KM20L2 colon = tested on: KM20L2 colon
# HOP-18 NSCLC = tested on: HOP-18 NSCLC
# DMS 273 small cell lung = tested on: DMS 273 small cell lung
# DLD-1 colon = tested on: DLD-1 colon
# XF 498 CNS = tested on: XF 498 CNS
# MCF7 breast = tested on: MCF7 breast
# HS 578T breast = tested on: HS 578T breast
# T-47D breast = tested on: T-47D breast
# NCI/ADR-RES ovarian = tested on: NCI/ADR-RES ovarian
Compound,TGI (LXFL 529 NSCLC),TGI (DMS 114 small cell lung),TGI (M19-MEL melanoma),TGI (KM20L2 colon),TGI (HOP-18 NSCLC),TGI (DMS 273 small cell lung) [µM],TGI (DLD-1 colon),TGI (XF 498 CNS) [µM],TGI (MCF7 breast),TGI (HS 578T breast),GI50 (HOP-18 NSCLC) [µM],GI50 (LXFL 529 NSCLC) [µM],GI50 (M19-MEL melanoma) [µM],GI50 (DLD-1 colon) [µM],GI50 (T-47D breast),TGI (T-47D breast),GI50 (MCF7 breast),GI50 (HS 578T breast),GI50 (NCI/ADR-RES ovarian),TGI (NCI/ADR-RES ovarian) [µM]
CN/N=C(/Cc1occc(=O)c1O)C(=O)Nc1ccccc1C,> 100 µM,> 100 µM,> 100 µM,> 100 µM,–,–,–,–,–,–,–,–,–,–,–,–,–,–,–,–
O=C(N/C(=C\c1ccc(/C=C(\NC(=O)c2ccccc2)c2nc3cc([N+](=O)[O-])ccc3[nH]2)cc1)c1nc2cc([N+](=O)[O-])ccc2[nH]1)c1ccccc1,> 100 µM,> 100 µM,> 100 µM,> 100 µM,> 100 µM,> 100,> 100 µM,–,–,–,–,–,–,–,–,–,–,–,–,–
O=C1c2ccccc2C2C1N2C(=O)C(F)(F)F (stereo not given),> 100 µM,> 100 µM,> 100 µM,> 100 µM,> 100 µM,> 100,> 100 µM,> 100,–,–,–,–,–,–,–,–,–,–,–,–
N#CCCN(CCC#N)c1ccc(/C=C2\N=C(c3cc([N+](=O)[O-])ccc3Cl)OC2=O)cc1,49.3 µM,47.9 µM,45 µM,> 100 µM,–,> 100,–,86.2,–,–,–,–,–,–,–,–,–,–,–,–
CC1(c2ccc(F)cc2)C(C#N)C(=O)NC(=O)C1C#N (stereo not given),> 100 µM,> 100 µM,> 100 µM,> 100 µM,–,> 100,> 100 µM,> 100,–,–,–,–,–,–,–,–,–,–,–,–
O=C1C2C(C(=O)N1OS(=O)(=O)c1ccccc1)N(Cc1ccccc1)C(=O)N2Cc1ccccc1 (stereo not given),> 100 µM,> 100 µM,> 100 µM,> 100 µM,–,–,> 100 µM,> 100,–,–,–,–,–,–,–,–,–,–,–,–
Cc1ccc(N=Nc2ccc(N(CCC#N)CCC#N)cc2C)c(Br)c1,> 100 µM,> 100 µM,> 100 µM,–,> 100 µM,41.4,> 100 µM,40.6,–,–,–,–,–,–,–,–,–,–,–,–
COc1ccc2c3c1C(=O)CCCC3CO2 (stereo not given),> 100 µM,> 100 µM,> 100 µM,–,–,> 100,> 100 µM,> 100,–,–,–,–,–,–,–,–,–,–,–,–
N#CC(c1ccc(Cl)cc1)c1cccc(C(C#N)c2ccc(Cl)cc2)n1 (stereo not given),> 100 µM,–,> 100 µM,> 100 µM,–,–,> 100 µM,26.2,–,–,–,–,–,–,–,–,–,–,–,–
O=C(CC1(O)C(=O)Nc2c(Cl)cc(Cl)cc21)c1ccc(Br)cc1Br (stereo not given),–,20.3 µM,25.1 µM,33.9 µM,27.9 µM,22.9,24.1 µM,23.8,29.6 µM,26.5 µM,–,–,–,–,–,–,–,–,–,–
O=C1/C(=C/c2ccccc2)CN(C(=O)C(Cl)(Cl)Cl)C/C1=C\c1ccccc1,3.38 µM,3.19 µM,2.68 µM,4.67 µM,9.6 µM,2.38,4.28 µM,–,–,–,–,–,–,–,–,–,–,–,–,–
COC(=O)[C@@H]1[C@H](O)[C@H](C)[C@H](O)[C@@](C)(O)/C=C\C=C(C)C(=O)Nc2c(C)c(OC(C)=O)c3c(c2O)C(=O)C(C)=C2OCOC(=C23)C(C)=C[C@@](C)(O)[C@H](O)[C@@H](C)[C@H]1OC(C)=O,> 100 µM and 66.9 µM,> 100 µM and 21.9 µM,> 100 µM and 21.6 µM and 28.3 µM,66.9 µM and > 100 µM,> 100 µM and 66.9 µM,> 100,> 100 µM and 66.9 µM,–,–,–,41.3,35.6,15,40.7,–,–,–,–,–,–
Cn1c2ccccc2c2c(Nc3ccccc3)c3ccccc3nc21,–,–,–,–,–,–,–,–,25.4 µM,60 µM,–,–,–,–,40.5 µM,> 100 µM,5290 nM,18.2 µM,54.1 µM,> 100
O=S1(=O)c2ccccc2NC(c2ccc3ccccc3c2)CC1c1ccccc1F (stereo not given),–,–,> 100 µM,> 100 µM,56.1 µM,> 100,> 100 µM,> 100,–,–,–,–,–,–,–,–,–,–,–,–
Cc1nc2ccccc2c(N)c1-c1cc(C)c2c(C)nc3ccccc3c2n1,–,–,–,–,–,–,–,–,2.06 µM,–,–,–,–,–,1.78 µM,4.04 µM,675 nM,0.891 µM,1.34 µM,3.15
COC1CCC(N2C(=O)CNc3ncc(-c4ccc(C(C)(C)O)nc4)nc32)CC1 (stereo not given),–,–,–,–,–,–,–,–,> 10 µM and 12.6 µM,3.68 µM and 0.624 µM,–,–,–,–,0.159 µM and 0.0258 µM,0.786 µM and 0.306 µM,305 nM and 127 nM,0.407 µM and 0.137 µM,1.64 µM and 0.435 µM,> 100
NC(=O)c1cccc2cn(-c3ccc([C@@H]4CCCNC4)cc3)nc12,–,–,–,–,–,–,–,–,23.9 µM,76.7 µM,–,–,–,–,12.9 µM,35.5 µM,6590 nM,21.5 µM,19.5 µM,> 74.5
Cc1ccc(NC2=C(Cl)C(=O)N(Cc3ccccc3)C2=O)cc1O,–,–,–,–,–,–,–,–,> 100 µM,83.4 µM,–,–,–,–,44.9 µM,> 100 µM,32200 nM,25.9 µM,30.8 µM,> 100
C=C1C(=O)C23CC1CCC2C12CO[C@@H]4OCC(C)(CC[C@@H]1OC3=O)C42 (stereo not given in full),9.39 µM,4.16 µM,19.6 µM,17.5 µM,15.5 µM,19.6,–,3.41,–,–,–,–,–,–,–,–,–,–,–,–
